ChEMBL document CHEMBL1151447, “Complex class 1 integrons with diverse variable regions, including aac(6')-Ib-cr, and a novel allele, qnrB10, associated with ISCR1 in clinical enterobacterial isolates from Argentina” (2007)

How the values were obtained:
Assay type in all cases: functional
Enterobacter cloacae = test: Antimicrobial activity against multidrug-resistant Enterobacter cloacae E705 bearing qnrB10 gene with aac(6)-IId-aadA1a integron in presence of IPTG
Escherichia coli [1] = test: Antimicrobial activity against Escherichia coli DH10B in presence of IPTG; details: K-12 substr. DH10B
Escherichia coli [2] = test: Antimicrobial activity against multidrug-resistant Escherichia coli M7943-TC2 bearing qnrB10 gene with aac(6)-Ib-cr-blaOXA-30 catB3-arr-3 integron in presence of IPTG
Escherichia coli [3] = test: Antimicrobial activity against Escherichia coli DH10B expressing pCR2.1 in presence of IPTG; details: K-12 substr. DH10B
Klebsiella pneumoniae = test: Antimicrobial activity against multidrug-resistant Klebsiella pneumoniae M7943 bearing qnrB10 gene with aac(6)-Ib-cr-blaOXA-30 catB3-arr-3 integron in presence of IPTG
Escherichia coli [4] = test: Antimicrobial activity against Escherichia coli J53-AzR in presence of IPTG
Escherichia coli [5] = test: Antimicrobial activity against Escherichia coli DH10B expressing pCRQB10 in presence of IPTG; details: K-12 substr. DH10B

Question: How did the MIC (Enterobacter cloacae) turn out when `NCC[C@H](O)C(=O)N[C@@H]1C[C@H](N)[C@@H](O[C@H]2O[C@H](CN)[C@@H](O)[C@H](O)[C@H]2O)[C@H](O)[C@H]1O[C@H]1O[C@H](CO)[C@@H](O)[C@H](N)[C@H]1O` [AMIKACIN] was run?
Answer: 8 mg/L

Question: And the MIC (Escherichia coli [1])?
Answer: 1 mg/L

Question: What about the MIC (Escherichia coli [2]) of the same compound?
Answer: 4 mg/L

Question: And the MIC (Escherichia coli [3])?
Answer: 2 mg/L

Question: And the MIC (Klebsiella pneumoniae)?
Answer: 16 mg/L

Question: And the MIC (Escherichia coli [4])?
Answer: 0.5 mg/L

Question: What about the MIC (Escherichia coli [5]) of the same compound?
Answer: 2 mg/L

Question: Which MIC (Klebsiella pneumoniae) does the source give for `O=C(O)c1cn(C2CC2)c2cc(N3CCNCC3)c(F)cc2c1=O` [CIPROFLOXACIN] here?
Answer: 32 mg/L

Question: For `COc1c(N2CCNC(C)C2)c(F)cc2c(=O)c(C(=O)O)cn(C3CC3)c12` (stereo unspecified) [GATIFLOXACIN], which MIC (Enterobacter cloacae) is on record?
Answer: 32 mg/L

Question: What about the MIC (Escherichia coli [1]) of the same compound?
Answer: 0.004 mg/L

Question: What about the MIC (Escherichia coli [2]) of the same compound?
Answer: 0.5 mg/L

Question: And the MIC (Escherichia coli [3])?
Answer: 0.004 mg/L

Question: What about the MIC (Klebsiella pneumoniae) of the same compound?
Answer: 4 mg/L

Question: And the MIC (Escherichia coli [4])?
Answer: 0.03 mg/L

Question: What about the MIC (Escherichia coli [5]) of the same compound?
Answer: 0.06 mg/L

Question: What does the source list for `NC[C@H]1O[C@H](O[C@H]2[C@H](O)[C@@H](O[C@H]3O[C@H](CO)[C@@H](O)[C@H](N)[C@H]3O)[C@H](N)C[C@@H]2N)[C@H](O)[C@@H](O)[C@@H]1O` [KANAMYCIN]?
Answer: MIC (Enterobacter cloacae): ≥ 256 mg/L; MIC (Escherichia coli [1]): 1 mg/L; MIC (Escherichia coli [2]): 64 mg/L; MIC (Escherichia coli [3]): ≥ 256 mg/L; MIC (Klebsiella pneumoniae): 128 mg/L; MIC (Escherichia coli [4]): 2 mg/L; MIC (Escherichia coli [5]): ≥ 256 mg/L

Question: For `C[C@H]1COc2c(N3CCN(C)CC3)c(F)cc3c(=O)c(C(=O)O)cn1c23.C[C@H]1COc2c(N3CCN(C)CC3)c(F)cc3c(=O)c(C(=O)O)cn1c23.O` [LEVOFLOXACIN], which MIC (Enterobacter cloacae) is on record?
Answer: ≥ 64 mg/L

Question: And the MIC (Escherichia coli [1])?
Answer: 0.004 mg/L

Question: And the MIC (Escherichia coli [3])?
Answer: 0.004 mg/L

Question: What about the MIC (Klebsiella pneumoniae) of the same compound?
Answer: 4 mg/L

Question: `COc1c(N2C[C@@H]3CCCN[C@@H]3C2)c(F)cc2c(=O)c(C(=O)O)cn(C3CC3)c12` [MOXIFLOXACIN] was tested. Which MIC (Escherichia coli [1]) did it give?
Answer: 0.004 mg/L

Question: What about the MIC (Escherichia coli [2]) of the same compound?
Answer: 1 mg/L

Question: What about the MIC (Escherichia coli [3]) of the same compound?
Answer: 0.004 mg/L

Question: And the MIC (Klebsiella pneumoniae)?
Answer: 8 mg/L

Question: What about the MIC (Escherichia coli [5]) of the same compound?
Answer: 0.125 mg/L

Question: Which MIC (Enterobacter cloacae) does the source give for `CCn1cc(C(=O)O)c(=O)c2ccc(C)nc21` [NALIDIXIC ACID] here?
Answer: ≥ 256 mg/L

Question: What about the MIC (Escherichia coli [1]) of the same compound?
Answer: 2 mg/L

Question: And the MIC (Escherichia coli [2])?
Answer: 16 mg/L

Question: And the MIC (Escherichia coli [3])?
Answer: 2 mg/L

Question: And the MIC (Klebsiella pneumoniae)?
Answer: 128 mg/L

Question: What about the MIC (Escherichia coli [4]) of the same compound?
Answer: 4 mg/L

Question: And the MIC (Escherichia coli [5])?
Answer: 8 mg/L

Question: `CCn1cc(C(=O)O)c(=O)c2cc(F)c(N3CCNCC3)cc21` [NORFLOXACIN] was tested. Which MIC (Enterobacter cloacae) did it give?
Answer: ≥ 64 mg/L

Question: And the MIC (Escherichia coli [1])?
Answer: 0.008 mg/L

Question: What about the MIC (Escherichia coli [2]) of the same compound?
Answer: 2 mg/L

Question: What about the MIC (Escherichia coli [3]) of the same compound?
Answer: 0.008 mg/L

Question: What about the MIC (Klebsiella pneumoniae) of the same compound?
Answer: 32 mg/L

Question: And the MIC (Escherichia coli [4])?
Answer: 0.03 mg/L

Question: And the MIC (Escherichia coli [5])?
Answer: 0.125 mg/L

Question: Which results are given for `CC1COc2c(N3CCN(C)CC3)c(F)cc3c(=O)c(C(=O)O)cn1c23` (stereo unspecified) [OFLOXACIN]?
Answer: MIC (Enterobacter cloacae): ≥ 64 mg/L; MIC (Escherichia coli [1]): 0.004 mg/L; MIC (Escherichia coli [3]): 0.004 mg/L; MIC (Klebsiella pneumoniae): 8 mg/L

Question: What does the source list for `NC[C@H]1O[C@H](O[C@H]2[C@H](O)[C@@H](O[C@H]3O[C@H](CO)[C@@H](O)[C@H](N)[C@H]3O)[C@H](N)C[C@@H]2N)[C@H](N)C[C@@H]1O` [TOBRAMYCIN]?
Answer: MIC (Enterobacter cloacae): 32 mg/L; MIC (Escherichia coli [1]): 0.25 mg/L; MIC (Escherichia coli [2]): 16 mg/L; MIC (Escherichia coli [3]): 0.25 mg/L; MIC (Klebsiella pneumoniae): 16 mg/L; MIC (Escherichia coli [4]): 0.25 mg/L; MIC (Escherichia coli [5]): 0.25 mg/L
